Laboratory results as given in ChEMBL document CHEMBL4002643, “Tubulin-binding dibenz[c,e]oxepines: Part 2. Structural variation and biological evaluation as tumour vasculature disrupting agents” (Bioorg Med Chem, 2017).

Tests used:
MCF7 = assay: Cytotoxicity against human MCF7 cells assessed as growth inhibition after 48 hrs by SRB assay; assay type: functional; conditions: MCF7, 48 h
SNB-75 = assay: Cytotoxicity against human SNB75 cells assessed as growth inhibition after 48 hrs by SRB assay; assay type: functional; conditions: SNB-75, 48 h
SN12C = assay: Cytotoxicity against human SN12C cells assessed as growth inhibition after 48 hrs by SRB assay; assay type: functional
M14 = assay: Cytotoxicity against human M14 cells assessed as growth inhibition after 48 hrs by SRB assay; assay type: functional; conditions: M14, 48 h
HOP-62 = assay: Cytotoxicity against human HOP62 cells assessed as growth inhibition after 48 hrs by SRB assay; assay type: functional; conditions: HOP-62, 48 h
[1] = Inhibition of porcine tubulin assembly measured for 30 mins by UV/visible spectrophotometric method; design: species or system Sus scrofa
UACC-62 = assay: Cytotoxicity against human UACC62 cells assessed as growth inhibition after 48 hrs by SRB assay; assay type: functional; conditions: UACC-62, 48 h
MOLT-4 = assay: Cytotoxicity against human MOLT4 cells assessed as growth inhibition after 48 hrs by SRB assay; assay type: functional; conditions: MOLT-4, 48 h
A549 = assay: Cytotoxicity against human A549 cells assessed as growth inhibition after 48 hrs by SRB assay; assay type: functional; conditions: A549, 48 h
786-0 = assay: Cytotoxicity against human 786-0 cells assessed as growth inhibition after 48 hrs by SRB assay; assay type: functional; conditions: 786-0, 48 h
NCI-H322M = assay: Cytotoxicity against human NCI-H322M cells assessed as growth inhibition after 48 hrs by SRB assay; assay type: functional
UACC-257 = assay: Cytotoxicity against human UACC257 cells assessed as growth inhibition after 48 hrs by SRB assay; assay type: functional; conditions: UACC-257, 48 h
SF-295 = assay: Cytotoxicity against human SF295 cells assessed as growth inhibition after 48 hrs by SRB assay; assay type: functional; conditions: SF-295, 48 h
SK-OV-3 = assay: Cytotoxicity against human SKOV3 cells assessed as growth inhibition after 48 hrs by SRB assay; assay type: functional; conditions: SK-OV-3, 48 h
IGROV-1 = assay: Cytotoxicity against human IGROV1 cells assessed as growth inhibition after 48 hrs by SRB assay; assay type: functional; conditions: IGROV-1, 48 h
OVCAR-3 = assay: Cytotoxicity against human OVCAR3 cells assessed as growth inhibition after 48 hrs by SRB assay; assay type: functional; conditions: OVCAR-3, 48 h
T47D = assay: Cytotoxicity against human T47D cells assessed as growth inhibition after 48 hrs by SRB assay; assay type: functional
SK-MEL-5 = assay: Cytotoxicity against human SK-MEL-5 cells assessed as growth inhibition after 48 hrs by SRB assay; assay type: functional; conditions: SK-MEL-5, 48 h
MDA-MB-468 = assay: Cytotoxicity against human MDA-MB-468 cells assessed as growth inhibition after 48 hrs by SRB assay; assay type: functional; conditions: MDA-MB-468, 48 h
OVCAR-4 = assay: Cytotoxicity against human OVCAR4 cells assessed as growth inhibition after 48 hrs by SRB assay; assay type: functional; conditions: OVCAR-4, 48 h
A498 = assay: Cytotoxicity against human A498 cells assessed as growth inhibition after 48 hrs by SRB assay; assay type: functional; conditions: A498, 48 h
SF-268 = assay: Cytotoxicity against human SF268 cells assessed as growth inhibition after 48 hrs by SRB assay; assay type: functional; conditions: SF-268, 48 h
PC-3 = assay: Cytotoxicity against human PC3 cells assessed as growth inhibition after 48 hrs by SRB assay; assay type: functional; conditions: PC-3, 48 h
NCI-H226 = assay: Cytotoxicity against human NCI-H226 cells assessed as growth inhibition after 48 hrs by SRB assay; assay type: functional; conditions: NCI-H226, 48 h
OVCAR-8 = assay: Cytotoxicity against human OVCAR8 cells assessed as growth inhibition after 48 hrs by SRB assay; assay type: functional; conditions: OVCAR-8, 48 h
CCRF-CEM = assay: Cytotoxicity against human CCRF-CEM cells assessed as growth inhibition after 48 hrs by SRB assay; assay type: functional
K562 [2] = assay: Cytotoxicity against human K562 cells assessed as growth inhibition after 48 hrs by SRB assay; assay type: functional; conditions: K562, 48 h
SK-MEL-28 = assay: Cytotoxicity against human SK-MEL-28 cells assessed as growth inhibition after 48 hrs by SRB assay; assay type: functional; conditions: SK-MEL-28, 48 h
SF-539 = assay: Cytotoxicity against human SF539 cells assessed as growth inhibition after 48 hrs by SRB assay; assay type: functional; conditions: SF-539, 48 h
SK-MEL-2 = assay: Cytotoxicity against human SK-MEL-2 cells assessed as growth inhibition after 48 hrs by SRB assay; assay type: functional; conditions: SK-MEL-2, 48 h
COLO 205 = assay: Cytotoxicity against human COLO205 cells assessed as growth inhibition after 48 hrs by SRB assay; assay type: functional; conditions: COLO 205, 48 h
BT-549 = assay: Cytotoxicity against human BT549 cells assessed as growth inhibition after 48 hrs by SRB assay; assay type: functional; conditions: BT-549, 48 h
HL-60(TB) = assay: Cytotoxicity against human HL-60(TB) cells assessed as growth inhibition after 48 hrs by SRB assay; assay type: functional; conditions: HL-60, 48 h
Hs-578T = assay: Cytotoxicity against human Hs 578T cells assessed as growth inhibition after 48 hrs by SRB assay; assay type: functional
RXF 393 = assay: Cytotoxicity against human RXF393 cells assessed as growth inhibition after 48 hrs by SRB assay; assay type: functional; conditions: RXF 393, 48 h
HCC 2998 = assay: Cytotoxicity against human HCC2998 cells assessed as growth inhibition after 48 hrs by SRB assay; assay type: functional; conditions: HCC 2998, 48 h
K562 [3] = assay: Cytotoxicity against human K562 cells assessed as growth inhibition after 5 days by MTT assay; assay type: functional, cell-based; conditions: K562, 120 h
SNB-19 = assay: Cytotoxicity against human SNB19 cells assessed as growth inhibition after 48 hrs by SRB assay; assay type: functional; conditions: SNB-19, 48 h
NCI-H460 = assay: Cytotoxicity against human NCI-H460 cells assessed as growth inhibition after 48 hrs by SRB assay; assay type: functional; conditions: NCI-H460, 48 h
SW-620 = assay: Cytotoxicity against human SW620 cells assessed as growth inhibition after 48 hrs by SRB assay; assay type: functional; conditions: SW-620, 48 h
UO-31 = assay: Cytotoxicity against human UO31 cells assessed as growth inhibition after 48 hrs by SRB assay; assay type: functional; conditions: UO-31, 48 h
LOX IMVI = assay: Cytotoxicity against human LOXIMVI cells assessed as growth inhibition after 48 hrs by SRB assay; assay type: functional
HCT-116 = assay: Cytotoxicity against human HCT116 cells assessed as growth inhibition after 48 hrs by SRB assay; assay type: functional; conditions: HCT-116, 48 h
U-251 = assay: Cytotoxicity against human U251 cells assessed as growth inhibition after 48 hrs by SRB assay; assay type: functional; conditions: U-251, 48 h
SR = assay: Cytotoxicity against human SR cells assessed as growth inhibition after 48 hrs by SRB assay; assay type: functional
MDA-MB-435 = assay: Cytotoxicity against human MDA-MB-435 cells assessed as growth inhibition after 48 hrs by SRB assay; assay type: functional; conditions: MDA-MB-435, 48 h

Structure (SMILES): COc1ccc2c(c1)COCc1cc(OC)c(OC)c(OC)c1-2
- GI50 (MCF7): 40 nM
- GI50 (SNB-75): 90 nM
- GI50 (SN12C): 830 nM
- GI50 (M14): 50 nM
- GI50 (HOP-62): 1120 nM
- IC50 [1]: 7400 nM
- GI50 (UACC-62): 80 nM
- GI50 (MOLT-4): 90 nM
- GI50 (A549): 130 nM
- GI50 (786-0): 340 nM
- GI50 (NCI-H322M): 2040 nM
- GI50 (UACC-257): > 100000 nM
- GI50 (SF-295): 60 nM
- GI50 (SK-OV-3): 130 nM
- GI50 (IGROV-1): 850 nM
- GI50 (OVCAR-3): 50 nM
- GI50 (T47D): > 100000 nM
- GI50 (SK-MEL-5): 30 nM
- GI50 (MDA-MB-468): 30 nM
- GI50 (OVCAR-4): 740 nM
- GI50 (A498): 170 nM
- GI50 (SF-268): 460 nM
- GI50 (PC-3): 480 nM
- GI50 (NCI-H226): 1580 nM
- GI50 (OVCAR-8): 310 nM
- GI50 (CCRF-CEM): 80 nM
- GI50 (K562 [2]): 40 nM
- GI50 (SK-MEL-28): 80 nM
- GI50 (SF-539): 160 nM
- GI50 (SK-MEL-2): 100 nM
- GI50 (COLO 205): 110 nM
- GI50 (BT-549): 200 nM
- GI50 (HL-60(TB)): 40 nM
- GI50 (Hs-578T): 240 nM
- GI50 (RXF 393): 80 nM
- GI50 (HCC 2998): 220 nM
- IC50 (K562 [3]): 110000 nM
- GI50 (SNB-19): 980 nM
- GI50 (NCI-H460): 170 nM
- GI50 (SW-620): 50 nM
- GI50 (UO-31): 15100 nM
- GI50 (LOX IMVI): 210 nM
- GI50 (HCT-116): 50 nM
- GI50 (U-251): 100 nM
- GI50 (SR): 40 nM
- GI50 (MDA-MB-435): 30 nM

Structure (SMILES): COc1ccc2c(c1OP(=O)([O-])[O-])COCc1cc(OC)c(OC)c(OC)c1-2.[Na+].[Na+]
- GI50 (MCF7): 400 nM
- GI50 (SNB-75): 540 nM
- GI50 (SN12C): 720 nM
- GI50 (M14): 270 nM
- GI50 (HOP-62): 790 nM
- IC50 [1]: 1400 nM
- GI50 (UACC-62): 5500 nM
- GI50 (MOLT-4): 400 nM
- GI50 (A549): 420 nM
- GI50 (786-0): 720 nM
- GI50 (NCI-H322M): 1320 nM
- GI50 (UACC-257): 4680 nM
- GI50 (SF-295): 320 nM
- GI50 (SK-OV-3): 400 nM
- GI50 (IGROV-1): 4070 nM
- GI50 (OVCAR-3): 280 nM
- GI50 (T47D): 8510 nM
- GI50 (SK-MEL-5): 260 nM
- GI50 (MDA-MB-468): 1150 nM
- GI50 (OVCAR-4): 1290 nM
- GI50 (A498): 18600 nM
- GI50 (SF-268): 790 nM
- GI50 (PC-3): 560 nM
- GI50 (NCI-H226): 2820 nM
- GI50 (OVCAR-8): 420 nM
- GI50 (CCRF-CEM): 290 nM
- GI50 (K562 [2]): 280 nM
- GI50 (SK-MEL-28): 890 nM
- GI50 (SF-539): 330 nM
- GI50 (SK-MEL-2): 5370 nM
- GI50 (COLO 205): 620 nM
- GI50 (BT-549): 2240 nM
- GI50 (HL-60(TB)): 320 nM
- GI50 (Hs-578T): 240 nM
- GI50 (RXF 393): 210 nM
- GI50 (HCC 2998): 420 nM
- IC50 (K562 [3]): 230 nM
- GI50 (SNB-19): 510 nM
- GI50 (NCI-H460): 360 nM
- GI50 (SW-620): 400 nM
- GI50 (UO-31): 19500 nM
- GI50 (LOX IMVI): 660 nM
- GI50 (HCT-116): 430 nM
- GI50 (U-251): 480 nM
- GI50 (SR): 190 nM
- GI50 (MDA-MB-435): 40 nM

Structure (SMILES): COc1ccc2c(c1O)COCc1cc(OC)c(OC)c(OC)c1-2
- GI50 (MCF7): 70 nM
- GI50 (SNB-75): 70 nM
- GI50 (SN12C): 210 nM
- GI50 (M14): 50 nM
- GI50 (HOP-62): 630 nM
- IC50 [1]: 2200 nM
- GI50 (UACC-62): 1000 nM
- GI50 (MOLT-4): 60 nM
- GI50 (A549): 350 nM
- GI50 (786-0): 430 nM
- GI50 (NCI-H322M): 520 nM
- GI50 (UACC-257): > 100000 nM
- GI50 (SF-295): 270 nM
- GI50 (SK-OV-3): 70 nM
- GI50 (IGROV-1): 630 nM
- GI50 (OVCAR-3): 210 nM
- GI50 (T47D): 33900 nM
- GI50 (SK-MEL-5): 40 nM
- GI50 (MDA-MB-468): 220 nM
- GI50 (OVCAR-4): 710 nM
- GI50 (A498): 3020 nM
- GI50 (SF-268): 90 nM
- GI50 (PC-3): 280 nM
- GI50 (NCI-H226): 3470 nM
- GI50 (OVCAR-8): 200 nM
- GI50 (CCRF-CEM): 40 nM
- GI50 (K562 [2]): 40 nM
- GI50 (SK-MEL-28): 1580 nM
- GI50 (SF-539): 50 nM
- GI50 (SK-MEL-2): 260 nM
- GI50 (COLO 205): 500 nM
- GI50 (BT-549): 260 nM
- GI50 (HL-60(TB)): 30 nM
- GI50 (Hs-578T): 40 nM
- GI50 (RXF 393): 40 nM
- GI50 (HCC 2998): 320 nM
- IC50 (K562 [3]): 34000 nM
- GI50 (SNB-19): 140 nM
- GI50 (NCI-H460): 310 nM
- GI50 (SW-620): 50 nM
- GI50 (UO-31): 14500 nM
- GI50 (LOX IMVI): 80 nM
- GI50 (HCT-116): 320 nM
- GI50 (U-251): 300 nM
- GI50 (SR): 40 nM
- GI50 (MDA-MB-435): 30 nM
